Test results taken from article PMC12566046, “Arylpiperazinyl-Benzocycloheptapyrrole-Carboxamides Endowed with Dual Anticancer and Antiviral Activities” (Molecules, 2025).
Where two headings read alike, the source gives them in different places.

Tests used:
[1] = tested on: HCT-116 (colon cancer cell line); test: NCI-60 five-dose assay; format: cell-based, human; details: Homo sapiens, five doses (10^−4–10^−8 M), read-out: Growth inhibition 50 (GI50)
[2] = tested on: COLO 205 (colon cancer cell line); test: NCI-60 five-dose assay; format: cell-based, human; details: Homo sapiens, five doses (10^−4–10^−8 M), read-out: Growth inhibition 50 (GI50)
[3] = tested on: CCRF-CEM (leukemia cell line); test: NCI-60 five-dose assay; format: cell-based, human; details: Homo sapiens, five doses (10^−4–10^−8 M), read-out: Growth inhibition 50 (GI50)
[4] = tested on: MALME-3M (melanoma cell line); test: NCI-60 five-dose assay; details: for GI50 / CC50: Homo sapiens, Malme-3M; for GI50: read-out: Growth inhibition 50 (GI50); for CC50: read-out: LC50 (molar concentration leading to 50% net cell death); for TGI (molar concentration giving total growth inhibition): MALME-3M
[5] = tested on: SK-MEL-5 (melanoma cell line); test: NCI-60 five-dose assay; details: for GI50 / CC50: Homo sapiens; for GI50: SK-MEL-5, read-out: Growth inhibition 50 (GI50); for CC50: SK-MEL-5, read-out: LC50 (molar concentration leading to 50% net cell death); for TGI (molar concentration giving total growth inhibition): SK-MEL-5
[6] = tested on: SK-MEL-2 (melanoma cell line); test: NCI-60 five-dose assay; details: for GI50 / CC50: Homo sapiens; for GI50: SK-MEL-2, read-out: Growth inhibition 50 (GI50); for CC50: SK-MEL-2, read-out: LC50 (molar concentration leading to 50% net cell death); for TGI (molar concentration giving total growth inhibition): SK-MEL-2
Prostate Cancer panel = test: NCI-60 five-dose assay, panel-level GI50 (mean graph midpoint); format: cell-based, human; details: Homo sapiens; Prostate Cancer panel average; read-out: GI50 mean graph midpoint (MG_MID)
Protocol: (§1) Due to these preliminary results, six compounds, 1, 5, 10, 11, 17, and 20, were selected for the five-dose screen NCI-programme against the same panel of tumour cell lines.
(§2) Next, a mean graph midpoint (MG_MD) was calculated for compounds 1, 5, 10, 11, 17, and 20 and reported as waterfall graphs GI50, TGI, and LC50 in the Supplementary Materials (Figures S69–S86). In Table 9, we reported the average GI50 for the nine-cancer panels, underlining both the activity and selectivity for compounds 1, 10, 11, and 20.

Ovarian Cancer panel = test: as above; format: cell-based, human; details: Homo sapiens; Ovarian Cancer panel average; read-out: GI50 mean graph midpoint (MG_MID)
Protocol: as §1, §2

CNS Cancer panel = test: as above; format: cell-based, human; details: Homo sapiens; CNS Cancer panel average; read-out: GI50 mean graph midpoint (MG_MID)
Protocol: as §1, §2

[7] = tested on: Non-Small Cell Lung Cancer panel; test: as above; format: cell-based, human; details: Homo sapiens; Non-Small Cell Lung Cancer panel average; read-out: GI50 mean graph midpoint (MG_MID)
Protocol: as §1, §2

Renal Cancer panel = test: as above; format: cell-based, human; details: Homo sapiens; Renal Cancer panel average; read-out: GI50 mean graph midpoint (MG_MID)
Protocol: as §1, §2

Breast Cancer panel = test: as above; format: cell-based, human; details: Homo sapiens; Breast Cancer panel average; read-out: GI50 mean graph midpoint (MG_MID)
Protocol: as §1, §2

[8] = tested on: KM12 (colon cancer cell line); test: NCI-60 five-dose assay; format: cell-based, human; details: Homo sapiens, five doses (10^−4–10^−8 M), read-out: Growth inhibition 50 (GI50)
M14 (melanoma cell line) = test: NCI-60 five-dose assay; details: for GI50 / CC50: Homo sapiens; for GI50: M14, read-out: Growth inhibition 50 (GI50); for CC50: M14, read-out: LC50 (molar concentration leading to 50% net cell death); for TGI (molar concentration giving total growth inhibition): M14
[9] = tested on: RXF 393 (renal cancer cells); test: NCI-60 five-dose assay; format: cell-based, human; details: Homo sapiens, five-dose screen
[10] = tested on: CAKI-1 (renal cancer cell line); test: NCI-60 five-dose assay; format: cell-based; details: Homo sapiens, five-dose screen
[11] = tested on: MDA-MB-468 (breast cancer); test: NCI-60 five-dose assay; format: cell-based, human; details: Homo sapiens, five-dose screen
[12] = tested on: SW-620 (colon cancer cell line); test: NCI-60 five-dose assay; format: cell-based, human; details: Homo sapiens
[13] = tested on: UACC-62 (melanoma cell line); test: NCI-60 five-dose assay; details: for GI50 / CC50: Homo sapiens; for GI50: UACC-62, read-out: Growth inhibition 50 (GI50); for CC50: UACC-62, read-out: LC50 (molar concentration leading to 50% net cell death); for TGI (molar concentration giving total growth inhibition): UACC-62
[14] = tested on: SK-MEL-28 (melanoma cell line); test: NCI-60 five-dose assay; details: for GI50 / CC50: Homo sapiens; for GI50: SK-MEL-28, read-out: Growth inhibition 50 (GI50); for CC50: SK-MEL-28, read-out: LC50 (molar concentration leading to 50% net cell death); for TGI (molar concentration giving total growth inhibition): SK-MEL-28
[15] = tested on: SF-295 (CNS cancer cell line); test: NCI-60 single-dose assay; format: cell-based, human
Outline: (§3)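 NCI-60 one-dose format: each compound is tested at a single dose against human tumour lines for cytotoxic effect.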

[16] = tested on: MDA-MB-435 (melanoma cell line); test: NCI-60 five-dose assay; details: for GI50 / CC50: Homo sapiens; for GI50: MDA-MB-435, read-out: Growth inhibition 50 (GI50); for CC50: MDA-MB-435, read-out: LC50 (molar concentration leading to 50% net cell death); for TGI (molar concentration giving total growth inhibition): MDA-MB-435
Colon Cancer panel = test: NCI-60 five-dose assay, panel-level GI50 (mean graph midpoint, range); format: cell-based, human; details: Homo sapiens
Protocol: as §1, §2

Melanoma panel = test: as above; format: cell-based, human; details: Homo sapiens
Protocol: as §1, §2

Leukemia panel = test: as above; format: cell-based, human; details: Homo sapiens
Protocol: as §1, §2

SR (leukemia cell line) = test: NCI-60 five-dose assay; format: cell-based, human; details: Homo sapiens, five doses (10^−4–10^−8 M), read-out: Growth inhibition 50 (GI50)
[17] = tested on: OVCAR-4 (ovarian cancer cell line); test: NCI-60 single-dose assay; format: cell-based, human
Outline: as §3

[18] = Colon Cancer panel average, read-out: GI50 mean graph midpoint (MG_MID)
[19] = Melanoma panel average, read-out: GI50 mean graph midpoint (MG_MID)
[20] = five-dose screen, number of cell lines as named in the sentence, read-out: GI50, range over melanoma cell lines
[21] = Leukemia panel average, read-out: GI50 mean graph midpoint (MG_MID)
[22] = SW-620, five doses (10^−4–10^−8 M), read-out: Growth inhibition 50 (GI50)

SMILES: CCN1CCC[C@H]1CNC(=O)c1[nH]c2c(c1Cl)CCCc1ccccc1-2 [Compound 1, (S)-3-Chloro-N-(1-ethyl-2-pyrrolidinylmethyl)-5,6-dihydro-4H-benzo[6,7]cyclohepta[1,2-b]pyrrol-2-carboxamide]
- GI50 [1]: 3.12 µM
- GI50 [2]: 1.8 µM
- GI50 [3]: 5.96 µM
- GI50 [4]: 1.54 µM
- CC50 [4]: 5.62 µM
- TGI (molar concentration giving total growth inhibition) [4]: 2.95 µM
- GI50 [5]: 1.68 µM
- CC50 [5]: 5.62 µM
- TGI (molar concentration giving total growth inhibition) [5]: 3.09 µM
- GI50 [6]: 9.38 µM
- CC50 [6]: 46.8 µM
- TGI (molar concentration giving total growth inhibition) [6]: 21.34 µM
- GI50 (Prostate Cancer panel): 8.13 µM
- GI50 (Ovarian Cancer panel): 2.29 µM
- GI50 (CNS Cancer panel): 4.79 µM
- GI50 [7]: 7.24 µM
- GI50 (Renal Cancer panel): 5.25 µM
- GI50 (Breast Cancer panel): 4.47 µM
- GI50 [8]: 3.02 µM
- GI50 (M14 (melanoma cell line)): 2.03 µM
- CC50 (M14 (melanoma cell line)): 9.12 µM
- TGI (molar concentration giving total growth inhibition) (M14 (melanoma cell line)): 4.36 µM
- GI50 [9]: 2.7 µM
- GI50 [10]: 2.29 µM
- GI50 [11]: 2.68 µM
- GI50 ([12]; SW-620, read-out: Growth inhibition 50 (GI50)): 1.75 µM
- GI50 [13]: 1.87 µM
- CC50 [13]: 8.32 µM
- TGI (molar concentration giving total growth inhibition) [13]: 3.98 µM
- GI50 [14]: 1.87 µM
- CC50 [14]: 7.24 µM
- growth inhibition (GI%) and cytotoxicity (negative values) ([15]; human): −24.35%
- GI50 [16]: 1.76 µM
- CC50 [16]: 5.62 µM
- TGI (molar concentration giving total growth inhibition) [16]: 3.55 µM
- GI50 (Colon Cancer panel; [18]): 2.34 µM
- GI50 (Colon Cancer panel; five-dose screen, read-out: GI50, range over colon cancer cell lines): 1.8 to 3.12 µM
- GI50 (Melanoma panel; [19]): 2.14 µM
- GI50 (Melanoma panel; [20]): 1.54 to 2.03 µM
- GI50 (Leukemia panel; [21]): 2.81 µM
- GI50 (Leukemia panel; Leukemia panel, read-out: average GI50 (mean graph midpoint)): 2.82 µM
- GI50 (Leukemia panel; five-dose screen, cell lines as named in the sentence, read-out: GI50, range over leukemia cell lines): 1.76 to 5.96 µM
- GI50 (SR (leukemia cell line)): 2.29 µM

SMILES: O=C(NCCCN1CCN(Cc2ccccc2)CC1)c1c(Cl)[nH]c2c1CCCc1ccccc1-2 [Compound 20, N-(3-(4-Benzylpiperazin-1-yl)propyl)-2-chloro-1,4,5,6-tetrahydrobenzo[6,7]cyclohepta[1,2-b]pyrrole-3-carboxamide]
- GI50 [1]: 5.5 µM
- GI50 [2]: 1.96 µM
- GI50 [3]: 10.7 µM
- GI50 [4]: 2.02 µM
- CC50 [4]: 7.76 µM
- TGI (molar concentration giving total growth inhibition) [4]: 3.98 µM
- GI50 [5]: 1.79 µM
- CC50 [5]: 6.46 µM
- TGI (molar concentration giving total growth inhibition) [5]: 3.39 µM
- GI50 [6]: 13.7 µM
- CC50 [6]: 53.7 µM
- TGI (molar concentration giving total growth inhibition) [6]: 26.91 µM
- GI50 (Prostate Cancer panel): 9.55 µM
- GI50 (Ovarian Cancer panel): 12 µM
- GI50 (CNS Cancer panel): 12 µM
- GI50 [7]: 10.5 µM
- GI50 (Renal Cancer panel): 9.12 µM
- GI50 (Breast Cancer panel): 6.92 µM
- GI50 [8]: 9.38 µM
- GI50 (M14 (melanoma cell line)): 2.01 µM
- CC50 (M14 (melanoma cell line)): 8.71 µM
- TGI (molar concentration giving total growth inhibition) (M14 (melanoma cell line)): 4.17 µM
- GI50 [12, 22]: 3.59 µM
- GI50 [13]: 6.93 µM
- CC50 [13]: 45.7 µM
- TGI (molar concentration giving total growth inhibition) [13]: 19.95 µM
- GI50 [14]: 2.11 µM
- CC50 [14]: 13.2 µM
- TGI (molar concentration giving total growth inhibition) [14]: 4.9 µM
- GI50 [16]: 4.9 µM
- CC50 [16]: 49 µM
- TGI (molar concentration giving total growth inhibition) [16]: 17.78 µM
- GI50 (Colon Cancer panel; [18]): 4.17 µM
- GI50 (Melanoma panel; [19]): 3.39 µM
- GI50 (Leukemia panel; [21]): 3.39 µM
- GI50 (SR (leukemia cell line)): 0.53 µM

SMILES: COc1ccccc1N1CCN(CCNC(=O)c2c(Cl)[nH]c3c2CCCc2ccccc2-3)CC1 [Compound 15]
- growth inhibition (GI%) [17]: 66.06%

SMILES: O=C(NCCCN1CCN(c2ccccc2)CC1)c1cc2c([nH]1)-c1ccccc1CCC2 [Compound 10, N-(3-(4-Phenylpiperazin-1-yl)propyl)-1,4,5,6-tetrahydrobenzo[6,7]cyclohepta[1,2-b]pyrrole-2-carboxamide]
- GI50 [1]: 4.83 µM
- GI50 [2]: 1.92 µM
- GI50 [3]: 8.21 µM
- GI50 [4]: 1.65 µM
- CC50 [4]: 15.5 µM
- TGI (molar concentration giving total growth inhibition) [4]: 4.36 µM
- GI50 [5]: 2.71 µM
- TGI (molar concentration giving total growth inhibition) [5]: 9.77 µM
- GI50 [6]: 14.9 µM
- CC50 [6]: 81.3 µM
- TGI (molar concentration giving total growth inhibition) [6]: 34.67 µM
- GI50 (Prostate Cancer panel): 6.61 µM
- GI50 (Ovarian Cancer panel): 12.3 µM
- GI50 (CNS Cancer panel): 17 µM
- GI50 [7]: 9.33 µM
- GI50 (Renal Cancer panel): 8.71 µM
- GI50 (Breast Cancer panel): 8.32 µM
- GI50 [8]: 4.89 µM
- GI50 (M14 (melanoma cell line)): 2.78 µM
- CC50 (M14 (melanoma cell line)): 44.7 µM
- TGI (molar concentration giving total growth inhibition) (M14 (melanoma cell line)): 8.51 µM
- GI50 [9]: 2.06 µM
- GI50 [11]: 2.93 µM
- GI50 [12, 22]: 8.89 µM
- GI50 [13]: 9.02 µM
- TGI (molar concentration giving total growth inhibition) [13]: 25.12 µM
- GI50 [14]: 2.51 µM
- TGI (molar concentration giving total growth inhibition) [14]: 8.51 µM
- growth inhibition (GI%) and cytotoxicity (negative values) ([15]; SF-295, single-dose assay): 90.84%
- GI50 [16]: 7.88 µM
- CC50 [16]: 40.7 µM
- TGI (molar concentration giving total growth inhibition) [16]: 18.62 µM
- GI50 (Colon Cancer panel; [18]): 3.98 µM
- GI50 (Melanoma panel; [19]): 4.07 µM
- GI50 (Melanoma panel; [20]): 1.65 to 2.78 µM
- GI50 (Leukemia panel; [21]): 2.95 µM
- GI50 (SR (leukemia cell line)): 2.29 µM

SMILES: CCOc1ccccc1N1CCN(CCNC(=O)c2c(Cl)[nH]c3c2CCCc2ccccc2-3)CC1 [Compound 17]
- GI50 [9]: 2.57 µM
